Results reported in PubChem BioAssay (NCI).
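Protocol summary: plate cells (96-well), add compound at 5 concentrations, incubate 48 h, interpolate endpoints linearly. TGI marks complete inhibition of growth.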

Columns and labels:
Test in all cases: growth of human tumour cells (NCI), 48 h
[1] = test system: LOX IMVI melanoma
[2] = test system: MDA-N
[3] = test system: MALME-3M melanoma
[4] = test system: MDA-MB-231 breast
[5] = test system: NCI-H522 lung
[6] = test system: A498 renal
[7] = test system: NCI-H460 lung
[8] = test system: NCI/ADR-RES ovarian
[9] = test system: SNB-19 CNS
[10] = test system: SNB-75 CNS
[11] = test system: HOP-62 NSCLC
[12] = test system: SK-MEL-5 melanoma
[13] = test system: NCI-H226 lung
[14] = test system: M14 melanoma
[15] = test system: CCRF-CEM leukemia
[16] = test system: SR leukemia
[17] = test system: OVCAR-3 ovarian
[18] = test system: UACC-62 melanoma
[19] = test system: UO-31 renal
[20] = test system: HOP-92 NSCLC
[21] = test system: T-47D breast
[22] = test system: UACC-257 melanoma
[23] = test system: MDA-MB-435
[24] = test system: OVCAR-5 ovarian
[25] = test system: HL-60(TB) leukemia
[26] = test system: SW-620 colon
[27] = test system: SF-295 CNS
[28] = test system: DU-145 prostate
[29] = test system: IGROV1 ovarian
[30] = test system: K-562 leukemia
[31] = test system: RXF 393 renal
[32] = test system: HCT-15 colon
[33] = test system: KM12 colon
[34] = test system: BT-549 breast
[35] = test system: EKVX NSCLC
[36] = test system: SK-MEL-2 melanoma
[37] = test system: TK-10 renal
[38] = test system: OVCAR-4 ovarian
[39] = test system: A549 NSCLC
[40] = test system: 786-0 renal
[41] = test system: MCF7 breast
[42] = test system: SK-MEL-28 melanoma
[43] = test system: SN12C renal
[44] = test system: U251 CNS
[45] = test system: SF-268 CNS
[46] = test system: ACHN renal
[47] = test system: OVCAR-8 ovarian
[48] = test system: HCC-2998 colon
[49] = test system: PC-3 prostate
[50] = test system: HS 578T breast
[51] = test system: SF-539 CNS
[52] = test system: COLO 205 colon
[53] = test system: SK-OV-3 ovarian
[54] = test system: HT29 colon
[55] = test system: CAKI-1 renal
[56] = test system: NCI-H23 lung
[57] = test system: MOLT-4 leukemia
[58] = test system: HCT-116 colon
[59] = test system: LXFL 529 NSCLC
[60] = test system: DLD-1 colon
[61] = test system: KM20L2 colon
[62] = test system: M19-MEL melanoma
[63] = test system: DMS 114 small cell lung
[64] = test system: XF 498 CNS
[65] = test system: DMS 273 small cell lung
[66] = test system: RPMI-8226 leukemia

Work on `O=[N+]([O-])c1ccc(NNN=Nc2ccc(-c3nc4ccccc4[nH]3)cc2)c([N+](=O)[O-])c1` yielded a TGI [1] of over 100 µM, a TGI [2] of over 100 µM and a TGI [3] of over 100 µM. The TGI [4] was over 100 µM, the TGI [5] was 61 µM and the TGI [6] was 89.5 µM. It also gave a TGI [7] of over 100 µM, a TGI [8] of over 100 µM and a TGI [9] of over 100 µM. It also gave a TGI [10] of over 100 µM, a TGI [11] of over 100 µM and a TGI [12] of 87.5 µM. The TGI [13] was over 100 µM, the TGI [14] was over 100 µM and the TGI [15] was over 100 µM. It also gave a TGI [16] of over 100 µM, a TGI [17] of over 100 µM and a TGI [18] of 38 µM. The TGI [19] was over 100 µM, the TGI [20] was over 100 µM and the TGI [21] was over 100 µM. For the same compound, the TGI [22] was over 100 µM, the TGI [23] was over 100 µM and the TGI [24] was over 100 µM. It also gave a TGI [25] of over 100 µM, a TGI [26] of over 100 µM and a TGI [27] of over 100 µM. The TGI [28] was over 100 µM, the TGI [29] was over 100 µM and the TGI [30] was 79.7 µM. It also gave a TGI [31] of over 100 µM, a TGI [32] of over 100 µM and a TGI [33] of over 100 µM. For the same compound, the TGI [34] was over 100 µM, the TGI [35] was 96.4 µM and the TGI [36] was 88.6 µM. It also gave a TGI [37] of over 100 µM, a TGI [38] of over 100 µM and a TGI [39] of over 100 µM. For the same compound, the TGI [40] was over 100 µM, the TGI [41] was 57.6 µM and the TGI [42] was over 100 µM. The TGI [43] was over 100 µM, the TGI [44] was over 100 µM and the TGI [45] was over 100 µM. For the same compound, the TGI [46] was over 100 µM, the TGI [47] was over 100 µM and the TGI [48] was over 100 µM. It also gave a TGI [49] of over 100 µM, a TGI [50] of over 100 µM and a TGI [51] of over 100 µM. The TGI [52] was over 100 µM, the TGI [53] was over 100 µM and the TGI [54] was over 100 µM. The TGI [55] was over 100 µM, the TGI [56] was over 100 µM and the TGI [57] was over 100 µM. It also gave a TGI [58] of over 100 µM.
Work on `O=C1N=CN=C2C=CC(Cl)=C(I)C12` (centres undefined) yielded a TGI [1] of over 100 µM, a TGI [3] of over 100 µM and a TGI [6] of over 100 µM. The TGI [7] was over 100 µM, the TGI [9] was over 100 µM and the TGI [11] was over 100 µM. It also gave a TGI [12] of over 100 µM, a TGI [14] of over 100 µM and a TGI [15] of over 100 µM. It also gave a TGI [59] of over 100 µM, a TGI [16] of over 100 µM and a TGI [60] of over 100 µM. It also gave a TGI [17] of over 100 µM, a TGI [61] of over 100 µM and a TGI [18] of over 100 µM. It also gave a TGI [62] of over 100 µM, a TGI [19] of 65.7 µM and a TGI [63] of over 100 µM. For the same compound, the TGI [22] was over 100 µM, the TGI [24] was over 100 µM and the TGI [25] was over 100 µM. The TGI [26] was over 100 µM, the TGI [27] was over 100 µM and the TGI [64] was over 100 µM. It also gave a TGI [29] of over 100 µM, a TGI [30] of over 100 µM and a TGI [31] of 70.8 µM. The TGI [65] was over 100 µM, the TGI [33] was over 100 µM and the TGI [35] was over 100 µM. For the same compound, the TGI [36] was over 100 µM, the TGI [37] was over 100 µM and the TGI [38] was over 100 µM. For the same compound, the TGI [39] was over 100 µM, the TGI [40] was over 100 µM and the TGI [42] was over 100 µM. The TGI [43] was over 100 µM, the TGI [44] was over 100 µM and the TGI [45] was over 100 µM. It also gave a TGI [46] of over 100 µM, a TGI [47] of over 100 µM and a TGI [48] of over 100 µM. For the same compound, the TGI [52] was over 100 µM, the TGI [66] was over 100 µM and the TGI [53] was over 100 µM. For the same compound, the TGI [54] was over 100 µM, the TGI [55] was over 100 µM and the TGI [56] was over 100 µM. The TGI [57] was over 100 µM and the TGI [58] was over 100 µM.
Work on `CCCCCCc1cc2cc(C(=O)NCc3ccccc3)c(=N)oc2cc1O` yielded a TGI [1] of over 100 µM, a TGI [2] of over 100 µM and a TGI [3] of over 100 µM. For the same compound, the TGI [4] was over 100 µM, the TGI [5] was over 100 µM and the TGI [6] was over 100 µM. The TGI [7] was over 100 µM, the TGI [8] was over 100 µM and the TGI [9] was over 100 µM. The TGI [10] was over 100 µM, the TGI [11] was over 100 µM and the TGI [12] was over 100 µM. It also gave a TGI [13] of over 100 µM, a TGI [14] of over 100 µM and a TGI [15] of over 100 µM. It also gave a TGI [16] of over 100 µM, a TGI [17] of over 100 µM and a TGI [18] of over 100 µM. The TGI [20] was over 100 µM, the TGI [21] was over 100 µM and the TGI [22] was over 100 µM. The TGI [23] was over 100 µM, the TGI [24] was over 100 µM and the TGI [25] was over 100 µM. For the same compound, the TGI [26] was over 100 µM, the TGI [28] was over 100 µM and the TGI [29] was over 100 µM. It also gave a TGI [30] of over 100 µM, a TGI [31] of over 100 µM and a TGI [32] of over 100 µM. It also gave a TGI [33] of over 100 µM, a TGI [34] of over 100 µM and a TGI [35] of over 100 µM. For the same compound, the TGI [36] was over 100 µM, the TGI [38] was over 100 µM and the TGI [39] was over 100 µM. It also gave a TGI [40] of over 100 µM, a TGI [41] of over 100 µM and a TGI [42] of over 100 µM. The TGI [43] was over 100 µM, the TGI [44] was over 100 µM and the TGI [45] was over 100 µM. It also gave a TGI [46] of over 100 µM, a TGI [47] of over 100 µM and a TGI [48] of over 100 µM. It also gave a TGI [49] of over 100 µM, a TGI [50] of over 100 µM and a TGI [51] of over 100 µM. It also gave a TGI [52] of over 100 µM, a TGI [66] of over 100 µM and a TGI [53] of over 100 µM. For the same compound, the TGI [54] was over 100 µM, the TGI [55] was over 100 µM and the TGI [56] was over 100 µM. It also gave a TGI [57] of over 100 µM and a TGI [58] of over 100 µM.
